PMC3265452 (PLoS Neglected Tropical Diseases, 2012)
Counter-ions that a name gives are not always drawn.

target: AaDOP2 (Aedes aegypti, UniProt H6D5H2); experiment: AaDOP2 antagonist screen of the LOPAC1280 library (HEK-CRELuc-Aadop2 cells, luminescence); assay type: cell-based; details: not given
Sequence (H6D5H2 1-476): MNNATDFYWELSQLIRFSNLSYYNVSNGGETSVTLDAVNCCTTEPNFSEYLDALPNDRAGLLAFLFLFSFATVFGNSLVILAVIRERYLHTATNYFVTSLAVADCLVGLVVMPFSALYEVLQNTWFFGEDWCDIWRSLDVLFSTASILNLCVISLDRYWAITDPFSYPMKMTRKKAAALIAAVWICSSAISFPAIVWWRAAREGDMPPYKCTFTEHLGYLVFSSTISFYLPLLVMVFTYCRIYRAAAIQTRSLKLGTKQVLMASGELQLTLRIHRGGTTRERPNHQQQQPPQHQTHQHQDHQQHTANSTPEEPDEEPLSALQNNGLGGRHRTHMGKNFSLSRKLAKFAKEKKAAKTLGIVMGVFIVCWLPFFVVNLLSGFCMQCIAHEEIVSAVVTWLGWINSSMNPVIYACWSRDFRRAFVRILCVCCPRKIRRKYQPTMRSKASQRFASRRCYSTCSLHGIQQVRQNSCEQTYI

In order of rising “Compound effect (percent receptor signaling in presence of test compound, relative lux units relative to the SCH23390 control)” value:
1. CNCCCN1c2ccccc2CCc2ccccc21 [Compound 380, Desipramine hydrochloride]  29
2. c1ccc2c(c1)[I+]c1ccccc1-2 [Compound 373, Diphenyleneiodonium chloride]  36
3. COC1=C(OC)C(=O)c2ccccc2C1=O [Compound 392, 2,3-Dimethoxy-1,4-naphthoquinone]  45
4. O=c1c(-c2ccc(O)cc2)coc2cc(O)ccc12 [Compound 410, Daidzein]  47
5. Nc1nccc2c1ncn2[C@@H]1O[C@H](CO)[C@@H](O)[C@H]1O [Compound 419, 3-deazaadenosine]  59
6. COc1cc(C(=O)OCCCN2CCCN(CCCOC(=O)c3cc(OC)c(OC)c(OC)c3)CC2)cc(OC)c1OC [Compound 389, Dilazep hydrochloride]  62
7. CCn1c(=O)[nH]c2cc(Cl)c(Cl)cc21 [Compound 428, DCEBIO]  67
8. Cc1cc(N)c2ccccc2[n+]1CCCCCCCCCC[n+]1c(C)cc(N)c2ccccc21 [Compound 378, Dequalinium dichloride]  73
9. O=c1ccc2ccc(O)c(O)c2o1 [Compound 393, Daphnetin]  74
10. O=c1c2ccccc2[nH]c(=S)n1CCN1CCC(=C(c2ccc(F)cc2)c2ccc(F)cc2)CC1 [Compound 397, Diacylglycerol Kinase Inhibitor II]  74
11. O=C1NC(=O)C(c2ccccc2)(c2ccccc2)N1 [Compound 385, Phenytoin sodium]  77
12. O=P(O)(O)C(Cl)(Cl)P(=O)(O)O [Compound 384, Clodronic acid]  83
13. C#C[C@]1(O)CC[C@H]2[C@@H]3CCC4=Cc5oncc5C[C@]4(C)[C@H]3CC[C@@]21C [Compound 421, Danazol]  83
14. CN(C)[C@@H]1C(O)=C(C(N)=O)C(=O)[C@@]2(O)C(O)=C3C(=O)c4c(O)ccc(Cl)c4[C@@H](O)[C@H]3C[C@@H]12 [Compound 403, Demeclocycline hydrochloride]  84
15. CN(C)CCOC(C)(c1ccccc1)c1ccccn1 (centres unmarked) [Compound 379, Doxylamine succinate]  85
16. COc1cc2nc(N3CCN(C(=O)C4COc5ccccc5O4)CC3)nc(N)c2cc1OC (centres unmarked) [Compound 432, Doxazosin mesylate]  86
17. C[N+]1(C)CCN(c2ccccc2)CC1.[I-] [Compound 400, 1,1-Dimethyl-4-phenyl-piperazinium iodide]  87
18. CC(=O)C(C)=O [Compound 375, 2,3-Butanedione]  88
19. CC(C)NC[C@H](O)COc1cccc2[nH]ccc12 [Compound 387, S(-)-Pindolol]  91
20. N[C@@H](Cc1ccc(O)c(O)c1)C(=O)O [Compound 430, L-3,4-Dihydroxyphenylalanine]  91
21. N[C@H](C(=O)O)c1cc(O)cc(O)c1 [Compound 377, (S)-3,5-Dihydroxyphenylglycine]  93
22. CCCCCCN(CCCCCC)C(=O)Cc1c(-c2ccc(F)cc2)[nH]c2ccccc12 [Compound 422, N,N-Dihexyl-2-(4-fluorophenyl)indole-3-acetamide]  93
23. C[C@]12CC[C@H](OS(=O)(=O)[O-])CC1=CC[C@@H]1[C@@H]2CC[C@]2(C)C(=O)CC[C@@H]12.[Na+] [Compound 390, Dehydroisoandrosterone 3-sulfate sodium]  94
24. Cn1c(=O)[nH]c2ncn(C)c2c1=O [Compound 391, 1,7-Dimethylxanthine]  94
25. CC1(C)CCC=[N+]1[O-] [Compound 395, 5,5-Dimethyl-1-pyrroline-N-oxide]  94
26. CNCCc1ccc(O)c(O)c1.Cl [Compound 399, N-Methyldopamine hydrochloride]  94
27. O=C(O)Cc1ccccc1Nc1c(Cl)cccc1Cl [Compound 405, Diclofenac sodium]  94
28. c1ccc(-c2ccccn2)nc1 [Compound 408, 2,2'-Bipyridyl]  94
29. CC(C)N(CCC(C(N)=O)(c1ccccc1)c1ccccn1)C(C)C (centres unmarked) [Compound 409, Disopyramide]  95
30. O=C1NC(=O)C(c2ccccc2)(c2ccccc2)N1 [Compound 382, 5,5-Diphenylhydantoin]  96
31. O=c1oc(Cl)c(Cl)c2ccccc12 [Compound 413, 3,4-Dichloroisocoumarin]  96
32. Clc1ccc(N2C[C@H]3CC[C@@H](C2)N3)nn1 [Compound 414, DBO-83]  100
33. O=C1CN(/N=C/c2ccc(-c3ccc([N+](=O)[O-])cc3)o2)C(O)=N1 [Compound 427, Dantrolene sodium]  100
34. CCC(=O)N1CCN(C(=O)c2ccccc2)CC1 [Compound 394, DM 235]  101
35. Oc1c2ccccc2c2c3c(cccc13)N=N2 [Compound 424, SP600125]  101
36. Nc1ccn([C@H]2CC[C@@H](CO)O2)c(=O)n1 [Compound 396, 2',3'-dideoxycytidine]  102
37. C[C@H]1c2cccc(O)c2C(=O)C2=C(O)[C@]3(O)C(=O)C(C(N)=O)=C(O)[C@@H](N(C)C)[C@@H]3[C@@H](O)[C@@H]21 [Compound 433, Doxycycline hydrochloride]  103
38. CC(C)N(CCC(C(N)=O)(c1ccccc1)c1ccccn1)C(C)C (centres unmarked) [Compound 402, Disopyramide phosphate]  104
39. CN(N=O)c1cc(O)ccc1O [Compound 417, Dephostatin]  111
40. CC1=NS(=O)(=O)c2cc(Cl)ccc2N1 [Compound 425, Diazoxide]  115
41. OC[C@H]1NC[C@H](O)[C@@H](O)[C@@H]1O [Compound 429, 1-Deoxynojirimycin hydrochloride]  116
42. Br.NC1CCc2cc(O)c(O)cc2C1 (centres unmarked) [Compound 434, 6,7-ADTN hydrobromide]  118
43. O=C(O)Cc1ccc(O)c(O)c1 [Compound 426, 3,4-Dihydroxyphenylacetic acid]  120

same assay, conditions: 10 µM compound, 300 nM dopamine, 2 hr

`Cc1nc2sccn2c(=O)c1CCN1CCC(=C(c2ccccc2)c2ccc(F)cc2)CC1` [Compound 401, Diacylglycerol kinase inhibitor I] was tested, and the “% of the SCH23390 effect (percent inhibition of receptor response relative to the SCH23390 control)” value was 90%.

same assay, conditions: 10 µM compound, 300 nM dopamine, 2 hr; hit = compound effect <20

In order of falling “Compound effect (percent receptor signaling in presence of test compound, relative lux units relative to the SCH23390 control)” value:
1. O=C(O)CN(CCN(CC(=O)O)CC(=O)O)CCN(CC(=O)O)CC(=O)O [Compound 404, Diethylenetriaminepentaacetic acid]  118%
2. CN(C)C(N)=NCCC[C@H](N)C(=O)O.Cl [Compound 383, N^G,N^G-Dimethylarginine hydrochloride]  106%
3. COc1c2c(nc3ccccc13)OC(C(C)(O)CO)C2 (centres unmarked) [Compound 411, Dubinidine]  100%
4. CN(C)C(=O)N=NC(=O)N(C)C [Compound 376, N,N,N',N'-Tetramethylazodicarboxamide]  93%
5. C/C=C1\C(=O)C[C@H]2[C@@H]3CCC4=CC(=O)CC[C@]4(C)[C@H]3CC[C@]12C [Compound 420, (Z)-Gugglesterone]  91%
6. CCCCCCCCCCC/C=C\C(C)(C)/C=C\CCCC(=O)O [Compound 415, 7,7-Dimethyl-(5Z,8Z)-eicosadienoic acid]  82%
7. N/C(=N\C(=O)c1nc(Cl)c(N)nc1N)NCc1ccc(Cl)c(Cl)c1 [Compound 418, 3',4'-Dichlorobenzamil]  73%
8. Br.CN1CCc2cc(O)cc3c2[C@H]1Cc1ccc(O)c(O)c1-3 [Compound 437, R(-)-2,10,11-Trihydroxyaporphine hybrobromide]  71%
9. Cc1nc2sccn2c(=O)c1CCN1CCC(=C(c2ccccc2)c2ccc(F)cc2)CC1 [Compound 401, Diacylglycerol kinase inhibitor I]  10%
